Here are results for two molecules from US7273878B2, “Difluoroalkene derivative, pest control agent containing the same, and intermediate therefor” (Kumiai Chemical Industry Co., Ltd., priority 2001, dated 2007).

Series [1] deals with ddy mouse (Slc:ddy). The series is described as follows: Oral acute toxicity test. The note with it: oral 30 mg/kg, mortality investigated for 7 days; for Test result Female (mortality, animals died out of 3): female ddy mouse; for Test result Male (mortality, animals died out of 3): male ddy mouse. Format: in vivo. Further details: key: 0/3 means none of 3 recipient animals died; 1/3 means one out of 3 recipient animals died; 2/3 means 2 out of 3 recipient animals died; 3/3 means all 3 recipient animals died. The method, then: Oral acute toxicity test was conducted according to the method described in the guideline in “Guideline for the Preparation of Test Report on the Toxicity Studies”, published by the Ministry of Agriculture, Forestry and Fisheries of Japan. Experimental animals, 3 each of male and female of 7 weeks aged ddy mouse (Slc:ddy), were obtained from SLC Japan Inc. The compounds of the present invention and the reference substances were suspended in 0.5% sodium carboxymethyl cellulose or corn oil to give a 30 (mg/kg) equivalent amount for a dosage of 10 ml per 1 kg of body weight. The suspensions were inoculated using a sonde directly into the stomach of test animals which were fasted for 3 hours before inoculation. The test animals were fasted for additional 3 hours after inoculation, and the mortality of the inoculated animal was investigated for 7 days. In this table, 0/3 means none of 3 recipient animals died, 1/3 means one out of 3 recipient animals died, 2/3 means 2 out of 3 recipient animals died, 3/3 means all 3 recipient animals died.

In series [2] the test system is Tetranychus urticae. In words: Prevention/extermination test against Tetranychus urticae (0.8 ppm). The note with it: 312 h, 0.8 ppm active ingredient, soybean seedlings inoculated with imago, 25° C., after 13 days, read-out: prevention/extermination titer. The class given is in vivo. The method, then: The wettable powder prepared according to the above Preparation Example 2 was diluted with water to a concentration of 500 ppm as a concentration of active ingredient. Soybean seedlings which had previously been inoculated with the imago of Tetranychus urticae were soaked in the test solution, then air dried. The treated soybean seedlings were left at the constant temperature of 25° C. After 13 days from the treatment, the number of surviving mites was counted, and the prevention/extermination titer was calculated according to the formula 2 below.
The wettable powder prepared according to the above Preparation Example 2 was diluted with water to a concentration of 0.8 ppm as a concentration of active ingredient. The same experiment as in Test Example 2 was carried out, and the prevention/extermination titer was calculated according to the formula 2.
In this test, representative compounds having the acaricidal effect with more than 90 of prevention/extermination titer include compound No. 63, 93, 77, 81, 105, 169, 190, 196 and 208.

With `CC(CCOC(=O)c1ccc(OC2CCCC2)nc1)=C(F)F` [Compound 81, 4,4-difluoro-3-methyl-3-butenyl 6-cyclopentyloxy-nicotinate], in series [1], the “Test result Female (mortality, animals died out of 3)” value is reported as 0/3 and the “Test result Male (mortality, animals died out of 3)” value is given as 0/3. The pest or weed control at 0.8 ppm in series [2] was over 90%.
As to `CCCCOc1ccc(C(=O)OCCC(C)=C(F)F)cn1` [Compound 77, 4,4-difluoro-3-methyl-3-butenyl 6-butoxynicotinate], in series [1], the “Test result Female (mortality, animals died out of 3)” value is recorded as 0/3 and the “Test result Male (mortality, animals died out of 3)” value is 0/3. For the same molecule, the pest or weed control at 0.8 ppm in series [2] was over 90%.
